According to ChEMBL document CHEMBL3045802, “Synthesis and in vitro antitumor activity of new quinoline, pyrimido[4,5-b]quinoline, [1,2,3]triazino[4,5-b]quinoline, and [1,2,4]triazolo[2,3:3,4]pyrimido[6,5-b]quinoline analogs” (2013):

Columns and labels:
Type in all cases: functional
[1] = test system: HCT-15; assay: Cytotoxicity against Homo sapiens (human) HCT15 cells assessed as growth inhibition at 10 uM after 48 hr by coulter counter analysis; conditions: HCT-15, 48 h, read-out: GI
[2] = test system: OVCAR-5; assay: Cytotoxicity against Homo sapiens (human) OVCAR5 cells assessed as growth inhibition at 10 uM after 48 hr by coulter counter analysis; conditions: OVCAR-5, 48 h, read-out: GI
[3] = test system: NCI-H460; assay: Cytotoxicity against Homo sapiens (human) NCI-H460 cells assessed as growth inhibition at 10 uM after 48 hr by coulter counter analysis; conditions: NCI-H460, 48 h, read-out: GI
[4] = test system: SF-268; assay: Cytotoxicity against Homo sapiens (human) SF268 cells assessed as growth inhibition at 10 uM after 48 hr by coulter counter analysis; conditions: SF-268, 48 h, read-out: GI
[5] = test system: SNB-19; assay: Cytotoxicity against Homo sapiens (human) SNB19 cells assessed as growth inhibition at 10 uM after 48 hr by coulter counter analysis; conditions: SNB-19, 48 h, read-out: GI
[6] = test system: NCI-H522; assay: Cytotoxicity against Homo sapiens (human) NCI-H522 cells assessed as growth inhibition at 10 uM after 48 hr by coulter counter analysis; conditions: NCI-H522, 48 h, read-out: GI
[7] = test system: LOX IMVI; assay: Cytotoxicity against Homo sapiens (human) LOXIMVI cells assessed as growth inhibition at 10 uM after 48 hr by coulter counter analysis; conditions: read-out: GI
[8] = test system: M14; assay: Cytotoxicity against Homo sapiens (human) M14 cells assessed as growth inhibition at 10 uM after 48 hr by coulter counter analysis; conditions: M14, 48 h, read-out: GI
[9] = test system: HT-29; assay: Cytotoxicity against Homo sapiens (human) HT-29 cells assessed as growth inhibition at 10 uM after 48 hr by coulter counter analysis; conditions: HT-29, 48 h, read-out: GI
[10] = test system: Malme-3M; assay: Cytotoxicity against Homo sapiens (human) MALME-3M cells assessed as growth inhibition at 10 uM after 48 hr by coulter counter analysis; conditions: read-out: GI
[11] = test system: HCT-116; assay: Cytotoxicity against Homo sapiens (human) HCT116 cells assessed as growth inhibition at 10 uM after 48 hr by coulter counter analysis; conditions: HCT-116, 48 h, read-out: GI
[12] = test system: DU-145; assay: Cytotoxicity against Homo sapiens (human) DU145 cells assessed as growth inhibition at 10 uM after 48 hr by coulter counter analysis; conditions: DU-145, 48 h, read-out: GI
[13] = test system: IGROV-1; assay: Cytotoxicity against Homo sapiens (human) IGROV1 cells assessed as growth inhibition at 10 uM after 48 hr by coulter counter analysis; conditions: IGROV-1, 48 h, read-out: GI
[14] = test system: SK-MEL-28; assay: Cytotoxicity against Homo sapiens (human) SK-MEL-28 cells assessed as growth inhibition at 10 uM after 48 hr by coulter counter analysis; conditions: SK-MEL-28, 48 h, read-out: GI
[15] = test system: HOP-92; assay: Cytotoxicity against Homo sapiens (human) HOP92 cells assessed as growth inhibition at 10 uM after 48 hr by coulter counter analysis; conditions: HOP-92, 48 h, read-out: GI
[16] = test system: MOLT-4; assay: Cytotoxicity against Homo sapiens (human) MOLT4 cells assessed as growth inhibition at 10 uM after 48 hr by coulter counter analysis; conditions: MOLT-4, 48 h, read-out: GI
[17] = test system: MDA-MB-468; assay: Cytotoxicity against Homo sapiens (human) MDA-MB-468 cells assessed as growth inhibition at 10 uM after 48 hr by coulter counter analysis; conditions: MDA-MB-468, 48 h, read-out: GI
[18] = test system: K562; assay: Cytotoxicity against Homo sapiens (human) K562 cells assessed as growth inhibition at 10 uM after 48 hr by coulter counter analysis; conditions: K562, 48 h, read-out: GI
[19] = test system: ACHN; assay: Cytotoxicity against Homo sapiens (human) ACHN cells assessed as growth inhibition at 10 uM after 48 hr by coulter counter analysis; conditions: read-out: GI
[20] = test system: HOP-62; assay: Cytotoxicity against Homo sapiens (human) HOP62 cells assessed as growth inhibition at 10 uM after 48 hr by coulter counter analysis; conditions: HOP-62, 48 h, read-out: GI
[21] = test system: UO-31; assay: Cytotoxicity against Homo sapiens (human) UO31 cells assessed as growth inhibition at 10 uM after 48 hr by coulter counter analysis; conditions: UO-31, 48 h, read-out: GI
[22] = test system: 786-0; assay: Cytotoxicity against Homo sapiens (human) 786-0 cells assessed as growth inhibition at 10 uM after 48 hr by coulter counter analysis; conditions: 786-0, 48 h, read-out: GI
[23] = test system: COLO 205; assay: Cytotoxicity against Homo sapiens (human) COLO205 cells assessed as growth inhibition at 10 uM after 48 hr by coulter counter analysis; conditions: COLO 205, 48 h, read-out: GI
[24] = test system: NCI-H23; assay: Cytotoxicity against Homo sapiens (human) NCI-H23 cells assessed as growth inhibition at 10 uM after 48 hr by coulter counter analysis; conditions: NCI-H23, 48 h, read-out: GI
[25] = test system: RPMI-8226; assay: Cytotoxicity against Homo sapiens (human) RPMI8226 cells assessed as growth inhibition at 10 uM after 48 hr by coulter counter analysis; conditions: RPMI-8226, 48 h, read-out: GI
[26] = test system: OVCAR-8; assay: Cytotoxicity against Homo sapiens (human) OVCAR8 cells assessed as growth inhibition at 10 uM after 48 hr by coulter counter analysis; conditions: OVCAR-8, 48 h, read-out: GI
[27] = test system: A549; assay: Cytotoxicity against Homo sapiens (human) A549 cells assessed as growth inhibition at 10 uM after 48 hr by coulter counter analysis; conditions: A549, 48 h, read-out: GI
[28] = test system: MCF7; assay: Cytotoxicity against Homo sapiens (human) MCF7 cells assessed as growth inhibition at 10 uM after 48 hr by coulter counter analysis; conditions: MCF7, 48 h, read-out: GI
[29] = test system: TK-10; assay: Cytotoxicity against Homo sapiens (human) TK10 cells assessed as growth inhibition at 10 uM after 48 hr by coulter counter analysis; conditions: TK-10, 48 h, read-out: GI
[30] = test system: PC-3; assay: Cytotoxicity against Homo sapiens (human) PC3 cells assessed as growth inhibition at 10 uM after 48 hr by coulter counter analysis; conditions: PC-3, 48 h, read-out: GI
[31] = test system: SR; assay: Cytotoxicity against Homo sapiens (human) SR cells assessed as growth inhibition at 10 uM after 48 hr by coulter counter analysis; conditions: read-out: GI
[32] = test system: SN12C; assay: Cytotoxicity against Homo sapiens (human) SN12C cells assessed as growth inhibition at 10 uM after 48 hr by coulter counter analysis; conditions: read-out: GI
[33] = test system: SK-MEL-2; assay: Cytotoxicity against Homo sapiens (human) SK-MEL-2 cells assessed as growth inhibition at 10 uM after 48 hr by coulter counter analysis; conditions: SK-MEL-2, 48 h, read-out: GI
[34] = test system: BT-549; assay: Cytotoxicity against Homo sapiens (human) BT549 cells assessed as growth inhibition at 10 uM after 48 hr by coulter counter analysis; conditions: BT-549, 48 h, read-out: GI

Row | Structure (SMILES) | inhibition of growth at 10 µM [1] [%] | inhibition of growth at 10 µM [2] [%] | inhibition of growth at 10 µM [3] [%] | inhibition of growth at 10 µM [4] [%] | inhibition of growth at 10 µM [5] [%] | inhibition of growth at 10 µM [6] [%] | inhibition of growth at 10 µM [7] [%] | inhibition of growth at 10 µM [8] [%] | inhibition of growth at 10 µM [9] [%] | inhibition of growth at 10 µM [10] [%] | inhibition of growth at 10 µM [11] [%] | inhibition of growth at 10 µM [12] [%] | inhibition of growth at 10 µM [13] [%] | inhibition of growth at 10 µM [14] [%] | inhibition of growth at 10 µM [15] [%] | inhibition of growth at 10 µM [16] [%] | inhibition of growth at 10 µM [17] [%] | inhibition of growth at 10 µM [18] [%] | inhibition of growth at 10 µM [19] [%] | inhibition of growth at 10 µM [20] [%] | other results
1 | COc1ccc(-c2nc3c(c(=O)[nH]2)C(c2ccc(Cl)cc2)C2=C(CCCC2)N3)cc1OC (stereo unspecified) | < 10 | < 10 | < 10 | < 10 | < 10 | 10.1 | < 10 | < 10 | < 10 | < 10 | < 10 | < 10 | < 10 | < 10 | < 10 | < 10 | < 10 | < 10 | < 10 | 10.2 | inhibition of growth at 10 µM [21]: 41.7%; inhibition of growth at 10 µM [22]: < 10%; inhibition of growth at 10 µM [23]: < 10%; inhibition of growth at 10 µM [24]: < 10%; inhibition of growth at 10 µM [25]: < 10%; inhibition of growth at 10 µM [26]: < 10%; inhibition of growth at 10 µM [27]: < 10%; inhibition of growth at 10 µM [28]: 13.5%; inhibition of growth at 10 µM [29]: < 10%; inhibition of growth at 10 µM [30]: 12.5%; inhibition of growth at 10 µM [31]: < 10%; inhibition of growth at 10 µM [32]: 12%; inhibition of growth at 10 µM [33]: < 10%; inhibition of growth at 10 µM [34]: < 10%
2 | COc1ccc(C2C3=C(CCCC3)Nc3nc(-c4ccccc4)[nH]c(=O)c32)cc1OC (stereo unspecified) | < 10 | 12.6 | < 10 | < 10 | 10.7 | 14.5 | < 10 | < 10 | < 10 | < 10 | < 10 | < 10 | < 10 | < 10 | 13.3 | < 10 | 21.2 | < 10 | 18 | 15.7 | inhibition of growth at 10 µM [21]: 48.6%; inhibition of growth at 10 µM [22]: < 10%; inhibition of growth at 10 µM [23]: 15.9%; inhibition of growth at 10 µM [24]: < 10%; inhibition of growth at 10 µM [25]: < 10%; inhibition of growth at 10 µM [26]: < 10%; inhibition of growth at 10 µM [27]: < 10%; inhibition of growth at 10 µM [28]: < 10%; inhibition of growth at 10 µM [29]: < 10%; inhibition of growth at 10 µM [30]: 13.5%; inhibition of growth at 10 µM [31]: < 10%; inhibition of growth at 10 µM [32]: 10.8%; inhibition of growth at 10 µM [33]: < 10%; inhibition of growth at 10 µM [34]: < 10%
3 | COc1ccc(C2C3=C(CCCC3)Nc3nc(-c4ccc(N(C)C)cc4)[nH]c(=O)c32)cc1OC (stereo unspecified) | < 10 | < 10 | < 10 | < 10 | < 10 | 14.4 | < 10 | < 10 | < 10 | < 10 | < 10 | < 10 | < 10 | < 10 | < 10 | < 10 | 10.8 | < 10 | < 10 | < 10 | inhibition of growth at 10 µM [21]: 29.4%; inhibition of growth at 10 µM [22]: < 10%; inhibition of growth at 10 µM [23]: < 10%; inhibition of growth at 10 µM [24]: < 10%; inhibition of growth at 10 µM [25]: < 10%; inhibition of growth at 10 µM [26]: < 10%; inhibition of growth at 10 µM [27]: < 10%; inhibition of growth at 10 µM [28]: < 10%; inhibition of growth at 10 µM [29]: < 10%; inhibition of growth at 10 µM [30]: 11.4%; inhibition of growth at 10 µM [31]: < 10%; inhibition of growth at 10 µM [32]: 12.9%; inhibition of growth at 10 µM [33]: < 10%; inhibition of growth at 10 µM [34]: < 10%
4 | Clc1ccc(C2C3=C(CCCC3)Nc3ncn4nc(-c5ccccc5)nc4c32)cc1 (stereo unspecified) | 10.2 | < 10 | < 10 | < 10 | < 10 | 23.5 | 15.1 | < 10 | 14.4 | < 10 | < 10 | < 10 | < 10 | < 10 | 14 | 11 | 23.1 | < 10 | < 10 | 16 | inhibition of growth at 10 µM [21]: 40%; inhibition of growth at 10 µM [22]: < 10%; inhibition of growth at 10 µM [23]: 11.5%; inhibition of growth at 10 µM [24]: 11.7%; inhibition of growth at 10 µM [25]: 12.3%; inhibition of growth at 10 µM [26]: < 10%; inhibition of growth at 10 µM [27]: < 10%; inhibition of growth at 10 µM [28]: < 10%; inhibition of growth at 10 µM [29]: < 10%; inhibition of growth at 10 µM [30]: 19.7%; inhibition of growth at 10 µM [31]: < 10%; inhibition of growth at 10 µM [32]: < 10%; inhibition of growth at 10 µM [33]: < 10%; inhibition of growth at 10 µM [34]: < 10%
